Measured values from patent US4997854A, “Anti-fibrotic agents and methods for inhibiting the activity of lysyl oxidase in-situ using adjacently positioned diamine analogue substrates” (Trustees of Boston University, priority 1989, dated 1991).
Like-named read-outs stand apart in the source and are kept apart here. One block for each molecule: values may come before it.

What was measured:
[1] = target: T1, lysyl oxidase (Bos taurus, UniProt P33072); assay: Lysyl oxidase peroxidase-coupled fluorescence assay of n-hexylamine oxidation; assay type: biochemical, bovine
T1 construct: Lysyl oxidase was purified from bovine aorta as previously described; from tissue; host or cells: bovine aorta
T1 sequence (P33072 170-418): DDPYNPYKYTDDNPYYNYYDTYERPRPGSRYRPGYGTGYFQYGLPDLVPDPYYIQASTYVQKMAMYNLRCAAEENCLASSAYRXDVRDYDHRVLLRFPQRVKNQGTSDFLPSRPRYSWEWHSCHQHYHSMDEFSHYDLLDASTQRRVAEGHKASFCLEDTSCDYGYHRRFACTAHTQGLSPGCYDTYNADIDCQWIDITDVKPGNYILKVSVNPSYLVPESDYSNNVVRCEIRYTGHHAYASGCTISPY
Procedure: Lysyl oxidase was purified from bovine aorta as previously described. [Williams, M. A. and H. M. Kagan, Anal. Biochem. 113:336 (1985)].
(§1) The purified lysyl oxidase enzyme was also assayed against alkyl monoamines and alkyl diamines using the reported peroxidase-coupled fluorescence method at 55° C. [Trackman et al., Anal. Biochem. 113:336-342 (1981)]. The reaction mixtures contained 40 ug horseradish peroxidase, 0.7 mM homovanillic acid, 1.2M urea, 0.02M potassium phosphate/borate buffer, at pH 8 (or at varying values of pH as indicated) in a total volume of 2 ml. Assay solutions were adjusted to an ionic strength of 0.04 using potassium chloride. Lysyl oxidase was then added to initiate the reaction. Fluorescence was continuously monitored at an excitation wavelength of 315 nm and an emission wavelength of 425 nm. The enzyme-dependent production of hydrogen peroxide was quantified by reference to standard plots relating nanomoles of hydrogen peroxide added to fluorescence units. […] Kinetic constants were derived from initial rate assay data by using the Fortan program of Cleland [Meth. Enzymol. 63:103-138 (1979)] which determines Vmax and Km values from data of Michaelis-Menten experiments using a least squares fitting procedure applied to the Michaelis-Menten equation.
The pH-dependency of the Vmax for the oxidation of a series of diamines and monoamine substrates by lysyl oxidase was first explored.
(§2) Accordingly cis and trans isomers of DACH were used to probe this possibility.

[2] = target: T1, lysyl oxidase; assay: Release of 3H+ from [1,2-3H]DACH by lysyl oxidase; assay type: biochemical, bovine; conditions: for Ratio ^3 H^+/Oxidant / ^3 H^+ Released: 1 mM [^3 H]DACH; for ^3 H^+ Released: pH 8, 37°C, maximum level
Procedure: ^a/ The indicated amounts of PQQ or functional active sites of lysyl
oxidase were incubated with [^3 H]DACH (1 mM; 0.13 mCi/mmole) in 50 m
sodium borate, pH 8, at 37°C. and aliquots of the incubation
mixture were removed at intervals, distilled in vacuo and the isolated
[^3 H]H2 O was quantified by liquid scintillation spectrometry.
The values shown are the maximum levels accumulated in these assays and
are corrected for minor background
effects in the absence of oxidant.
Toward similar ends [1,2-^3 H]DACH was synthesized and used to determine whether the reaction of this diamine with limiting quantities of free PQQ or of lysyl oxidase would result in the release of ^3 H^+ --a result to be expected if carbon 1 and/or carbon 2 positions of cis-DACH were oxidized in these reaction mixtures. As provided by Table E2, approximately 2 moles of ^3 H^+ were released per mole of each limiting reactant; with a maximum of 2.30 moles of ^3 H^+ released per mole of PQQ and a maximum of 1.88 moles of ^3 H^+ released per mole of functional active site in lysyl oxidase. While the synthetic, tritiated product used in these studies consisted of a mixture of the cis and trans isomers, the concentration of [^3 H]DACH incubated with the lysyl oxidase enzyme was sufficiently low to restrict the reaction primarily to the cis isomer--based upon the previous assessment of the relative potency of these compounds as inhibitors of lysyl oxidase or as perturbants of the spectrum of PQQ.

[3] = target: T1, lysyl oxidase; assay: Irreversible, time-dependent inactivation of lysyl oxidase (preincubation, then dialysis or dilution into the assay); assay type: biochemical, bovine; conditions: for rate of inactivation under anaerobic conditions: anaerobic / nitrogen-purged
Procedure: as §2
In addition, the time-dependency for the expression of irreversible inhibition was assessed by initially preincubating lysyl oxidase at 37° in the presence or absence of various concentrations of cis-DACH; and then diluting aliquots of these individual reaction mixtures into peroxidase-coupled assays for n-hexylamine oxidation - thereby reducing the cis-DACH concentrations to non-inhibitory levels within the lysyl oxidase assays. […] The possibility that the inactivation derived from the removal of the metal ion cofactor of the enzyme by the cyclic diamine was then assessed by atomic absorption spectroscopy.

[4] = target: T1, lysyl oxidase; assay: Protein-bound copper of lysyl oxidase by atomic absorption spectroscopy; set-up: species or system bovine; conditions: 1 mM, then dialyzed against metal-free buffer
Procedure: In addition, the time-dependency for the expression of irreversible inhibition was assessed by initially preincubating lysyl oxidase at 37° in the presence or absence of various concentrations of cis-DACH; and then diluting aliquots of these individual reaction mixtures into peroxidase-coupled assays for n-hexylamine oxidation - thereby reducing the cis-DACH concentrations to non-inhibitory levels within the lysyl oxidase assays. […] This is illustrated by FIG. 4. […] The possibility that the inactivation derived from the removal of the metal ion cofactor of the enzyme by the cyclic diamine was then assessed by atomic absorption spectroscopy. This method of analysis yielded the same values for protein-bound copper in aliquots of purified lysyl oxidase which had been incubated in either the presence or absence of 1 mM cis-DACH and then dialyzed extensively against metal-free buffer.

[5] = target: T1, lysyl oxidase; assay: Perturbation of the absorption spectrum of lysyl oxidase; set-up: species or system bovine
Procedure: Absorption spectra were recorded in 1 cm cuvettes with a Hewlett Packard Diode Array spectrophotometer, with temperatures controlled by circulating water through the cuvette holder. Mixtures were made anaerobic by purging buffers and stock solutions in rubber-capped tubes with high purity nitrogen for 15 min, and then injecting aliquots of the solutions into a 1 cm semi-micro cuvette fitted with a rubber septum and flushed with nitrogen before addition of reagents. Once in the capped cuvette, each solution was further exposed to a stream of nitrogen passed over the surface of the solution and out of the capped cuvette through 21 guage needles for 5 min. just prior to spectral recording. Each perturbation described was reproducible in three or more trials.
Increased absorption occurs in accordance with an increase in optical density occurring in the region of 250 nm; a broad peak also develops with a maximum absorbance at 350-355 nm upon incubation of 47 uM cis-DACH with 4.25 uM of functional active sites in lysyl oxidase as shown in FIG. 6B. The absorption peak at 350-355 nm correlates quite well with a peak generated at the same position in the spectrum of PQQ by its interaction with cis-DACH.

[6] = target: T1, lysyl oxidase; assay: Release of H2O2 on oxidation of cis-DACH by lysyl oxidase; assay type: biochemical, bovine; conditions: for Ratio H2O2/Oxidant / H2O2 Released: 1 mM cis-DACH; for H2O2 Released: maximal release
Procedure: as §1
In view of the apparent inhibiting effect of anaerobic conditions on the induction by cis-DACH of changes in the spectra of PQQ and lysyl oxidase, the possibility was evaluated that oxidation of the diamine substrate analogue may be involved in the development of irreversible inhibition of lysyl oxidase. […] This argues against significant catalytic turnover with the cyclic diamine. Nevertheless, as illustrated by FIG. 7, the development of irreversible inhibition was strongly dependent upon the presence of oxygen since the rate of inactivation was negligible under anaerobic conditions.
Toward that end, evidence was sought for the release of H2 O2 upon the reaction of cis-DACH with limiting amounts of PQQ or of relatively large quantities (although limiting relative to cis-DACH) of pure lysyl oxidase. As given by Table E1, hydrogen peroxide formation was seen under these conditions with the maximum levels of H2 O2 formed essentially equal to the amount of the limiting reactant in both cases, i.e., free PQQ or lysyl oxidase, respectively.
^a/ Hydrogen peroxide as assayed in the peroxidasecoupled fluorescenc
assay using 1 mM cisDACH as the sole source of amine substrate and
containing lysyl oxidase or PQQ at the indicated amounts. Incubations wer
continued until the release of H2 O2 was maximal in each case.
The quantity of lysyl oxidase used is expressed in the Table in terms of
functional active site content. The concentration of PQQ was determined
using 19,122 as the molar extinction coefficent.

[7] = lysyl oxidase as oxidant, mean of 3 amounts
[8] = n-hexylamine substrate, competitive, read-out: KI, competitive inhibition of lysyl oxidase activity against n-hexylamine

IC50 ([1]; n-hexylamine oxidation, extrapolated, read-out: (extrapolated) I50 in assays of n-hexylamine oxidation): > 10000 µM
fold less inhibitory than cis-DACH ([1]; n-hexylamine oxidation, relative to cis-DACH): at least 10,000 fold
SMILES: N[C@@H]1CCCC[C@H]1N (relative stereo) [trans-DACH, 1,2-Diaminocyclohexane, reference compound]

Ratio ^3 H^+/Oxidant ([2]; 0.50 nanomoles lysyl oxidase active sites): 1.96
^3 H^+ Released ([2]; 0.50 nanomoles lysyl oxidase functional active sites): 0.98 Nanomoles
Ratio ^3 H^+/Oxidant ([2]; 1.24 nanomoles lysyl oxidase active sites): 1.80
^3 H^+ Released ([2]; 1.24 nanomoles lysyl oxidase functional active sites): 2.23 Nanomoles
Ratio ^3 H^+/Oxidant ([2]; 3.72 nanomoles lysyl oxidase active sites): 1.87
^3 H^+ Released ([2]; 3.72 nanomoles lysyl oxidase functional active sites): 6.95 Nanomoles
Ratio ^3 H^+/Oxidant, mean [2, 7]: 1.88 ± 0.07
SMILES: [3H]C1(N)CCCCC1([3H])N (centres unmarked) [[1,2-^3 H]DACH, [1,2-^3 H]-1,2-diaminocyclohexane]
^3 H^+ released per mole of functional active site in lysyl oxidase ([2]; limiting lysyl oxidase): 1.88 moles of ^3 H^+ released per mole of functional active site

Ki ([1]; as restated in the summary, read-out: KI): 0.38 µM
IC50 ([1]; n-hexylamine oxidation, read-out: I50 in assays of n-hexylamine oxidation): 1.5 µM
Ki [1, 8]: 0.38 µM
rate of inactivation under anaerobic conditions [3]: negligible
reversibility of inhibition ([3]; enzyme preincubated with 0.05M cis-DACH at 37° for 15 min, then dialyzed): irreversible
kinact ([3]; preincubation at 37°, secondary reciprocal plot, read-out: limiting apparent first order rate constant for inactivation, Kinact (converted)): 0.3 s⁻¹
removal of copper from the active site [4]: did not remove copper
perturbation of the lysyl oxidase spectrum ([5]; aerobic, 47 uM cis-DACH with 4.25 uM functional active sites): perturbed
perturbation of the lysyl oxidase spectrum under anaerobic conditions ([5]; anaerobic): not altered significantly
Ratio H2O2/Oxidant ([6]; 0.71 nanomoles lysyl oxidase active sites): 1.40
H2O2 Released ([6]; 0.71 nanomoles lysyl oxidase functional active sites): 1.0 nmol
Ratio H2O2/Oxidant ([6]; 1.78 nanomoles lysyl oxidase active sites): 0.96
H2O2 Released ([6]; 1.78 nanomoles lysyl oxidase functional active sites): 1.70 nmol
formation of H2O2 with catalytic quantities of lysyl oxidase ([6]; 2-4 ug lysyl oxidase, limit of sensitivity ca. 1 nanomole of H2O2): not detectable
Ratio H2O2/Oxidant ([6]; 2.20 nanomoles lysyl oxidase active sites): 0.69
H2O2 Released ([6]; 2.20 nanomoles lysyl oxidase functional active sites): 1.52 nmol
Ratio H2O2/Oxidant, mean [6, 7]: 1.02 ± 0.29
SMILES: N[C@@H]1CCCC[C@@H]1N [cis-DACH, 1,2-Diaminocyclohexane]

SMILES: NCCN [EDA, Ethylenediamine]
Ki [1, 8]: 2 µM
rate of inactivation under anaerobic conditions [3]: markedly reduced
